System: Kunming mice
Assay: Effects on sleep in mice: pentobarbital sodium of suprathreshold dose, sleep latency and duration
Assay type: in vivo
Conditions: gavage once a day for two consecutive weeks (diazepam 0.75 mg/kg; melatonin 75 mg/kg; embodiment/comparative raw material 3.5 g/kg), 50 mg/kg pentobarbital sodium i.p. 60 minutes after last administration, n=10
From the text: • Test group 1: diazepam group. • Test group 2: melatonin group. • Test group 3: diazepam+embodiment 1 group. • Test group 4: diazepam+embodiment 4 group. • Test group 5: diazepam+embodiment 5 group. • Test group 6: diazepam+comparative example 1 group. • Test group 7: diazepam+comparative example 2 group.
Note: embodiments and comparative examples were concentrated and dried to obtain test raw materials.
Test animals: Kunming mice, 18-22 g. (specific pathogen free (SPF) grade, provided by the Pharmacology Department of Traditional Chinese Medicine, Beijing University of Chinese Medicine).
Test method: The mice were randomly divided into a control group and a test group. The test group 1: diazepam of 0.75 mg/kg was administrated by gavage once a day for two consecutive weeks. The test group 2: melatonin of 75 mg/kg was administrated by gavage once a day for two consecutive weeks. The test group 3 to test group 7: after administrating diazepam of 0.75 mg/kg by gavage, 3.5 g/kg of the raw material of the embodiment or comparative example is administrated once a day for two consecutive weeks. After 60 minutes of the last intragastric administration, the mice in each group were injected with 50 mg/kg pentobarbital sodium intraperitoneally, and the sleep latency and sleep duration of the mice in each group were recorded with the disappearance of righting reflex more than […] as the sleep standard.

Structure (SMILES)	Sleep duration	Sleep latency
CN1C(=O)CN=C(c2ccccc2)c2cc(Cl)ccc21 [Test group 1, diazepam]	126.37 ± 6.17 min	2.47 ± 0.27 min
COc1ccc2[nH]cc(CCNC(C)=O)c2c1 [Test group 2, melatonin]	64.38 ± 3.70 min	4.38 ± 0.35 min

Source: patent publication US20250049759A1, “PHARMACEUTICAL PREPARATION FOR ASSISTING IN PROMOTING SLEEP AND PREPARATION METHOD THEREOF” (Changde Jizhi Biological Technology Co., Ltd, priority 2023, published 2025)
